Source: ChEMBL document CHEMBL4818987, “Recent advances of podophyllotoxin/epipodophyllotoxin hybrids in anticancer activity, mode of action, and structure-activity relationship: An update (2010-2020)” (Eur J Med Chem, 2020)
pIC50: −log10 of the molar value.

Experiments:
K562 [1] = test: Cytotoxicity against human K562 cells incubated for 72 hrs by CCK8 assay; type: functional, cell-based; settings: K562, 72 h
K562/Adr [2] = test: Cytotoxicity against human K562/ADR cells incubated for 72 hrs by CCK8 assay; type: functional, cell-based
K562 [3] = test: Potency index, ratio of doxorubicin IC50 to compound IC50 for human K562 cells; type: functional
K562/Adr [4] = test: Potency index, ratio of doxorubicin IC50 to compound IC50 for human K562/ADR cells; type: functional
[5] = Resistance index, ratio of IC50 for human K562/ADR cells to IC50 for human K562 cells; type: functional
MCF7 [6] = test: Cytotoxicity against human MCF7 cells by MTT assay; type: functional, cell-based
BGC-823 [7] = test: Antiproliferative activity against human BGC-823 cells incubated for 72 hrs by MTT assay; type: functional, cell-based; settings: BGC-823, 72 h
MKN-45 = test: Antiproliferative activity against human MKN-45 cells incubated for 72 hrs by MTT assay; type: functional, cell-based; settings: Homo sapiens, MKN-45, 72 h
MCF7 [8] = test: Antiproliferative activity against human MCF7 cells incubated for 24 hrs by MTT assay; type: functional, cell-based; settings: MCF7, 24 h
HepG2 [9] = test: Antiproliferative activity against human HepG2 cells incubated for 24 hrs by MTT assay; type: functional, cell-based; settings: HepG2, 24 h
A549 [10] = test: Antiproliferative activity against human A549 cells incubated for 24 hrs by MTT assay; type: functional, cell-based; settings: A549, 24 h
HeLa [11] = test: Antiproliferative activity against human HeLa cells incubated for 24 hrs by MTT assay; type: functional, cell-based
L02 [12] = test: Cytotoxicity against human L02 cells; type: cell-based
A549 [13] = test: Antiproliferative activity against human A549 cells incubated for 48 hrs by MTT assay; type: functional, cell-based; settings: A549, 48 h
HepG2 [14] = test: Antiproliferative activity against human HepG2 cells incubated for 48 hrs by MTT assay; type: functional, cell-based; settings: HepG2, 48 h
L02 [15] = test: Cytotoxicity against human HL7702 cells incubated for 48 hrs by MTT assay; type: cell-based; settings: L02, 48 h
BGC-823 [16] = test: Antiproliferative activity against human BGC-823 cells incubated for 48 hrs by MTT assay; type: functional, cell-based; settings: BGC-823, 48 h
Vero = test: Cytotoxicity against African green monkey Vero cells; type: cell-based; settings: Chlorocebus sabaeus
Calu-1 = test: Antiproliferative activity against human Calu-1 cells incubated for 24 hrs by MTT assay; type: functional, cell-based; settings: Calu-1, 24 h
K562 [17] = test: Potency index, ratio of etoposide IC50 to test compound IC50 for antiproliferative activity against human K562 cells; type: functional
K562 [18] = test: Antiproliferative activity against human K562 cells incubated for 72 hrs by CCK8 assay; type: functional, cell-based; settings: K562, 72 h
K562/Adr [19] = test: Antiproliferative activity against human K562/ADR cells incubated for 72 hrs by CCK8 assay; type: functional, cell-based
K562/Adr [20] = test: Potency index, ratio of etoposide IC50 to test compound IC50 for antiproliferative activity against human K562/ADM cells; type: functional
HeLa [21] = test: Antiproliferative activity against human HeLa cells incubated for 48 hrs by MTT assay; type: functional, cell-based
MCF7 [22] = test: Antiproliferative activity against human MCF7 cells incubated for 48 hrs by MTT assay; type: functional, cell-based; settings: MCF7, 48 h
Huh-7 = test: Antiproliferative activity against human Huh7 cells incubated for 48 hrs by MTT assay; type: functional, cell-based; settings: Huh-7, 48 h
K562/A02 = test: Cytotoxicity against human K562/A02 cells by SRB assay; type: functional, cell-based
SW480 = test: Antiproliferative activity against human SW480 cells incubated for 48 hrs by MTT assay; type: functional, cell-based; settings: SW480, 48 h
SMMC-7721 = test: Antiproliferative activity against human SMMC-7721 cells incubated for 48 hrs by MTT assay; type: functional, cell-based; settings: SMMC-7721, 48 h
HL-60 = test: Antiproliferative activity against human HL-60 cells incubated for 48 hrs by MTT assay; type: functional, cell-based; settings: HL-60, 48 h
A549 [23] = test: Antiproliferative activity against human A549 cells incubated for 72 hrs by MTT assay; type: functional, cell-based; settings: A549, 72 h
HCT-116 = test: Antiproliferative activity against human HCT116 cells incubated for 3 days by MTT assay; type: functional, cell-based; settings: HCT-116, 72 h
HepG2 [24] = test: Antiproliferative activity against human HepG2 cells incubated for 3 days by MTT assay; type: functional, cell-based; settings: HepG2, 72 h
A549 [25] = test: Antiproliferative activity against human A549 cells incubated for 3 days by MTT assay; type: functional, cell-based; settings: A549, 72 h

## COc1cc([C@@H]2c3cc4c(cc3[C@@H](OC(=O)/C=C/c3ccc([N+](=O)[O-])cc3)[C@H]3COC(=O)[C@H]23)OCO4)cc(OC)c1OC
K562 [1]
  pIC50: 7.96
K562/Adr [2]
  pIC50: 7.96
K562 [3]
  Ratio IC50: 2.2
K562/Adr [4]
  Ratio IC50: 2.2
[5]
  Ratio IC50: 1.1

## COc1cc([C@@H]2c3cc4c(cc3[C@@H](OCc3cn([C@@H]5O[C@H](COC(C)=O)[C@H](OC(C)=O)[C@H](OC(C)=O)[C@H]5OC(C)=O)nn3)[C@H]3COC(=O)[C@H]23)OCO4)cc(OC)c1OC
MCF7 [6]
  pIC50: 5.90

## CC1=C(/C=C/C(C)=C/C=C/C(C)=C/C(O)O)C(C)(C)CCC1
BGC-823 [7]
  pIC50: 4.08
MKN-45
  pIC50: 4.05

## COc1ccc(-c2nnc(SCC(=O)O[C@H]3c4cc5c(cc4[C@@H](c4cc(OC)c(OC)c(OC)c4)[C@H]4C(=O)OC[C@@H]43)OCO5)o2)cc1
MCF7 [8]
  pIC50: 5.60
HepG2 [9]
  pIC50: 5.60
A549 [10]
  pIC50: 5.60
HeLa [11]
  pIC50: 5.60
L02 [12]
  pIC50: 4.03

## COc1ccc(/C=C/C(=O)O[C@@H]2c3cc4c(cc3[C@@H](c3cc(OC)c(OC)c(OC)c3)[C@H]3C(=O)OC[C@@H]32)OCO4)cc1OC
K562 [1]
  pIC50: 7.96
K562/Adr [2]
  pIC50: 7.96
K562 [3]
  Ratio IC50: 2.2
K562/Adr [4]
  Ratio IC50: 2.2
[5]
  Ratio IC50: 1.1

## COc1cc([C@@H]2c3cc4c(cc3[C@@H](Sc3ncnc5nc[nH]c35)[C@H]3COC(=O)[C@H]23)OCO4)cc(OC)c1OC
A549 [13]
  pIC50: 6.52
HepG2 [14]
  pIC50: 6.52
L02 [15]
  pIC50: 6.52
BGC-823 [16]
  pIC50: 6.52

## COc1ccc(/C=C\c2cc(OC)c(OC)c(OC)c2)cc1O [COMBRETASTATIN A4]
MCF7 [8]
  pIC50: 5.46
HepG2 [9]
  pIC50: 5.46
A549 [10]
  pIC50: 5.56
Vero
  pIC50: 5.59
HeLa [11]
  pIC50: 5.56
Calu-1
  pIC50: 5.56
L02 [12]
  pIC50: 5.37

## COc1cc([C@@H]2c3cc4c(cc3[C@H](OCC(=O)N3C(=O)C(=O)c5ccc(Cl)cc53)[C@H]3COC(=O)[C@H]23)OCO4)cc(OC)c1OC
K562 [17]
  Ratio IC50: 8.8
K562 [18]
  pIC50: 7.72
K562/Adr [19]
  pIC50: 7.72
K562/Adr [20]
  Ratio IC50: 8.8

## COc1cc([C@@H]2c3cc4c(cc3[C@@H](Nc3ncccc3C)[C@H]3COC(=O)[C@H]23)OCO4)cc(OC)c1O
A549 [13]
  pIC50: 7.22
BGC-823 [16]
  pIC50: 7.22
HeLa [21]
  pIC50: 7.22
MCF7 [22]
  pIC50: 7.22
Huh-7
  pIC50: 7.22

## COc1cccc2c1C(=O)c1c(O)c3c(c(O)c1C2=O)C[C@@](O)(C(=O)CO)C[C@@H]3O[C@H]1C[C@H](N)[C@H](O)[C@H](C)O1 [DOXORUBICIN]
K562/Adr [2]
  pIC50: 6.66
K562/A02
  GI50: 14.3 µM

## COc1cc([C@@H]2c3cc4c(cc3[C@@H](OC(=O)/C=C/c3ccco3)[C@H]3COC(=O)[C@H]23)OCO4)cc(OC)c1OC
K562 [1]
  pIC50: 7.96
K562/Adr [2]
  pIC50: 7.96
K562 [3]
  Ratio IC50: 2.2
K562/Adr [4]
  Ratio IC50: 2.2
[5]
  Ratio IC50: 1.1

## CCCC(=O)OC[C@H]1O[C@H](OCc2cn([C@@H]3c4cc5c(cc4[C@@H](c4cc(OC)c(O)c(OC)c4)[C@H]4C(=O)OC[C@@H]43)OCO5)nn2)[C@H](OC(=O)CCC)[C@@H](OC(=O)CCC)[C@H]1OC(=O)CCC
SW480
  pIC50: 6.31
SMMC-7721
  pIC50: 6.31
MCF7 [22]
  pIC50: 6.31
HL-60
  pIC50: 6.31
A549 [23]
  pIC50: 6.31

## COc1cc([C@@H]2c3cc4c(cc3[C@H](OC(=O)CSc3nnc(-c5ccc(Br)cc5)o3)[C@H]3COC(=O)[C@H]23)OCO4)cc(OC)c1OC
MCF7 [8]
  pIC50: 5.60
HepG2 [9]
  pIC50: 5.60
A549 [10]
  pIC50: 5.60
HeLa [11]
  pIC50: 5.60
L02 [12]
  pIC50: 4.10

## COc1cc([C@@H]2c3cc4c(cc3[C@@H](NC(=S)NC(=O)c3cccc(C)c3)[C@H]3COC(=O)[C@H]23)OCO4)cc(OC)c1OC
HCT-116
  pIC50: 7.00
HepG2 [24]
  pIC50: 7.00
A549 [25]
  pIC50: 7.00
